Test results: ChEMBL document CHEMBL1201862, “PubChem BioAssay data set” (2004)
Active and inactive are the calls of the source.

Tests used:
[1] = molecular target: T1, Oxysterols receptor LXR-beta (Homo sapiens, UniProt P55055); assay: LXR agonists, Gal4 luciferase reporter, dose response, counter-screen for ssDAF-12 agonist project, cell-based, luminescence, HEK293, S. stercoralis campaign (AID 720737); type: functional; conditions: read-out: IC50 (the source's name)
T1 sequence (P55055 whole entry): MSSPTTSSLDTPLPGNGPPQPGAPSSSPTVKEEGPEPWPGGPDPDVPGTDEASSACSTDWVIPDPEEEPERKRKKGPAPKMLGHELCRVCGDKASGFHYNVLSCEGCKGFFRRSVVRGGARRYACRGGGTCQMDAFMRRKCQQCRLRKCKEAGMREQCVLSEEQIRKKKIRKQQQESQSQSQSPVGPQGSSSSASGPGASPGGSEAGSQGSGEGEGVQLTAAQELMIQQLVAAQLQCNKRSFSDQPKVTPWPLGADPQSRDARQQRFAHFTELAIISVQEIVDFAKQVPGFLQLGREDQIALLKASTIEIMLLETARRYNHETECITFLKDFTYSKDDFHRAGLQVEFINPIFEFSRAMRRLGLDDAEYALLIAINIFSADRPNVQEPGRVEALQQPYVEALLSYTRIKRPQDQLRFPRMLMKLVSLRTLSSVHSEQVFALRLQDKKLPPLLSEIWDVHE

[2] = Luminescence-based cell-based high throughput dose response assay to identify activators of the DAF-12 from the parasite S. stercoralis (ssDAF-12).; type: functional
[3] = viability loss in THP-1 monocytes – THP-1 cells, cytotoxicity control for Vif-APOBEC3G degradation inhibitor project, dose response (AID 1117359); type: functional; conditions: THP-1
[4] = A Cell Based Secondary Assay To Explore Cytotoxicity of Compounds that Sensitize Mycobacterium Tuberculosis to Beta-Lactam Antibiotics.; type: functional
[5] = molecular target: T2, Ubiquitin-conjugating enzyme E2 N (Homo sapiens, UniProt P61088); type: functional;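 note: Dose-response confirmation in a TR-FRET assay detecting UBC13-driven polyubiquitin chain formation, inhibition measured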
T2 sequence (P61088 whole entry): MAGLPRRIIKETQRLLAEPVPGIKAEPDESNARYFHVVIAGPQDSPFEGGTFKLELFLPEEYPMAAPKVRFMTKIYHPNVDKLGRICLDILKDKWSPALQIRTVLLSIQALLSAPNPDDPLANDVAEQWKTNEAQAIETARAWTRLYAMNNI

[6] = general mammalian cell viability loss – activator set, cherry-pick, cytotoxicity control for miR-122 modulator project, dose response (AID 720690); type: functional, cell-based;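 note: HEK293T human cells scored for general mammalian cytotoxicity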
[7] = activation of miR-122 Renilla sensor silencing – cell-based, Huh7 psiCHECK-miR122, Renilla luciferase, cherry-picked, dose response (AID 651956); type: functional;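 note: huh7 hepatoma cells stably carrying a psiCHECK-2 miR-122 sensor plasmid; renilla luciferase signal reporting endogenous miR-122 activity after 48 h compound exposure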
[8] = molecular target: T3, DNA repair protein RAD52 homolog (Homo sapiens, UniProt P43351); type: functional, biochemical
T3 sequence (P43351 whole entry): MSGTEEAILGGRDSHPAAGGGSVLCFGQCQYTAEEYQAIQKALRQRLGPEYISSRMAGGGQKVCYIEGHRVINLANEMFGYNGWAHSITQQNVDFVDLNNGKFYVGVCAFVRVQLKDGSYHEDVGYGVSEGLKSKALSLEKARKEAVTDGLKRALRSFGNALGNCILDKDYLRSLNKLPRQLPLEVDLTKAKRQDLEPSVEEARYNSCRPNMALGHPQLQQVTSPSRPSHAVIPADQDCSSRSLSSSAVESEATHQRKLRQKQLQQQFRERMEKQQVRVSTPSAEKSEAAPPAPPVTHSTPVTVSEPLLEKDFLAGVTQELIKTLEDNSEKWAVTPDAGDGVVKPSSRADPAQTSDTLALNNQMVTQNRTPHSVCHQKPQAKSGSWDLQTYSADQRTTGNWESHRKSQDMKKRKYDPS

[9] = Luminescence Cell-Based Dose Retest to Confirm Inhibitors of Cancer Stem Cells. [Related pubchem assays (depositor defined):AID2717, AID2721]; type: functional; conditions: Homo sapiens
[10] = general mammalian cell viability loss – inhibitor set, cherry-pick, set 2, cytotoxicity control for miR-122 modulator project, dose response (AID 720697); type: functional, cell-based
Melanocortin receptor 4 = Melanocortin receptor 4 (Homo sapiens, UniProt P32245); type: functional, cell-based;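 note: Cell-based assay with luminescence read-out, confirmatory dose-response testing for agonist activity of biased ligands at MC4R; human U2OS cells with tagged receptor and beta-arrestin; potency of agonists that increase receptor coupling to beta-arrestin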
[11] = molecular target: T4, Tyrosyl-DNA phosphodiesterase 2 (Homo sapiens, UniProt O95551); assay: potency against TDP2 phosphodiesterase activity – biochemical, epi absorbance, IC50, dose response (AID 743297)
T4 sequence (O95551 whole entry): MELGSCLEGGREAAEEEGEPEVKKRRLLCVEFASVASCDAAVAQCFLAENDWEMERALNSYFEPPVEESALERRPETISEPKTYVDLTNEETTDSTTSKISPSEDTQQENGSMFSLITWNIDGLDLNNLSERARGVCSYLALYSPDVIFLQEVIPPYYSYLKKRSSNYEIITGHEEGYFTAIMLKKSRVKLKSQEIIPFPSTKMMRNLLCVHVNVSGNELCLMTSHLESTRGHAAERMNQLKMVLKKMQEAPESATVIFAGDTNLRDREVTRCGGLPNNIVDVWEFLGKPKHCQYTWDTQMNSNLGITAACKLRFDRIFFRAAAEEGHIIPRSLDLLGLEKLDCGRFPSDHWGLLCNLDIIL

Protein RecA = molecular target: T5, Protein RecA (Mycobacterium tuberculosis, UniProt P9WHJ3); assay: Fluorescence Cell-Free Homogeneous Dose Retest to Identify Inhibitors of RecA-Intein Splicing Activity. [Related pubchem assays (depositor defined):AID2097, AID2223, AID489010, AID492950]; type: functional
T5 sequence (P9WHJ3 whole entry): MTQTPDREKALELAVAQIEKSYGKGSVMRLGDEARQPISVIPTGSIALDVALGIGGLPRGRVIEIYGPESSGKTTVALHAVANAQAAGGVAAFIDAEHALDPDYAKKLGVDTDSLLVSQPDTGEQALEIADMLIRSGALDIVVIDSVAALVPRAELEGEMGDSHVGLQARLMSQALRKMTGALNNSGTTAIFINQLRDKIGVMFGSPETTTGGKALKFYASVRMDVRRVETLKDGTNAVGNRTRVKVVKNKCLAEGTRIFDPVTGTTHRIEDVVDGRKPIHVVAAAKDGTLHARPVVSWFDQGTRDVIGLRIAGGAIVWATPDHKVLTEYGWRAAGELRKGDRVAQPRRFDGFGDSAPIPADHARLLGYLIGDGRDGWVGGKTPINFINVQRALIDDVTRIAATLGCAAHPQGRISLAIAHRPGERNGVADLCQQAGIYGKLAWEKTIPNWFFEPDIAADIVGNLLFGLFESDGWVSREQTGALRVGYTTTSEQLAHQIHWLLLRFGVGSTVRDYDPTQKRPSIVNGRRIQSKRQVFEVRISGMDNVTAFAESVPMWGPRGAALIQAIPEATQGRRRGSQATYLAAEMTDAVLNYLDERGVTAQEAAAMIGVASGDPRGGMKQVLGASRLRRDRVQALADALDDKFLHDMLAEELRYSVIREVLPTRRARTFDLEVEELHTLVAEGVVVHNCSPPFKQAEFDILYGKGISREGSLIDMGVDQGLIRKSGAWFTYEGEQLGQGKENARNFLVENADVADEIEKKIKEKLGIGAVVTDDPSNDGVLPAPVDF

[12] = molecular target: T6, Replicative DNA helicase DnaB (Mycobacterium tuberculosis, UniProt P9WMR3); assay: DnaB intein splicing inhibitors, dose response, biochemical, cell-free fluorescence (AID 449749); type: functional
T6 sequence (P9WMR3 whole entry): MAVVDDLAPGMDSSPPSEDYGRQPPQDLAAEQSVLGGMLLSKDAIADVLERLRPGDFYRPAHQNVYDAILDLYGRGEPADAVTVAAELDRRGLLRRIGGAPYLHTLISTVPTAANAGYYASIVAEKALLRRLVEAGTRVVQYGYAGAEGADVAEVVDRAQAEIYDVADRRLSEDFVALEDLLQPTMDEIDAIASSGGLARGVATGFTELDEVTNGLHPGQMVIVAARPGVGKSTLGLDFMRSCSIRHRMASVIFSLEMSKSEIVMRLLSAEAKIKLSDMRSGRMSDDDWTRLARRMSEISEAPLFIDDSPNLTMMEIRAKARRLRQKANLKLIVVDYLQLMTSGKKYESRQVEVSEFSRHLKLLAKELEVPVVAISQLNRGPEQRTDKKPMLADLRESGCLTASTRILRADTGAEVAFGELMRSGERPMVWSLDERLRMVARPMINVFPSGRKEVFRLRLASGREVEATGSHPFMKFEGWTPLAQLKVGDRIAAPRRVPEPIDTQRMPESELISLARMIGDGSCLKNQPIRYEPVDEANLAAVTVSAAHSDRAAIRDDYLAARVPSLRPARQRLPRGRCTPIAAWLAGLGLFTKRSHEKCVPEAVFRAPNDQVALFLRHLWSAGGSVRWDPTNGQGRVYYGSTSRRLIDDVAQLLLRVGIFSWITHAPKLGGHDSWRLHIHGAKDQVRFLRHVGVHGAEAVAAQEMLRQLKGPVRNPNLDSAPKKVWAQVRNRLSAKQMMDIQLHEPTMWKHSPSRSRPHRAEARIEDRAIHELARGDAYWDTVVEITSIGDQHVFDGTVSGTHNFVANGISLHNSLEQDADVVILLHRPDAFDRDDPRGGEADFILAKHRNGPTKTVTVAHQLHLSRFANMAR

[13] = molecular target: T7, Mannose-6-phosphate isomerase (Homo sapiens, UniProt P34949); assay: MPI inhibition at elevated mannose 6-phosphate – biochemical, fluorescence intensity, high mannose 6-phosphate, primary screen (AID 1220)
T7 sequence (P34949 whole entry): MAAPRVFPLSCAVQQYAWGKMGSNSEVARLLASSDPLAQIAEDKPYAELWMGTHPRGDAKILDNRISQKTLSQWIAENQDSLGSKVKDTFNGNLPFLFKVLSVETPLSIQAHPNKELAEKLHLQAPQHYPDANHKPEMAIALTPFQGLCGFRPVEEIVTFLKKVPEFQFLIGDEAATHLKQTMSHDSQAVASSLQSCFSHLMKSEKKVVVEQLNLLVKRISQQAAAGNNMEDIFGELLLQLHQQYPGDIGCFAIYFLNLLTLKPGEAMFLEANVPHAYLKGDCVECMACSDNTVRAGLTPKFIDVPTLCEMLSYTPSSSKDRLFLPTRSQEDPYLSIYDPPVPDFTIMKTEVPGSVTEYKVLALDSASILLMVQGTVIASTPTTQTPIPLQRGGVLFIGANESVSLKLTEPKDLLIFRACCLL

[14] = molecular target: Induced myeloid leukemia cell differentiation protein Mcl-1 (Homo sapiens, UniProt Q07820); type: functional
HEK293 = assay: EBV LMP1 TES2 canonical NF-kB signalling blockers – cell-based, HEK293, luciferase, cherry-pick, dose response (AID 588343); type: functional; conditions: Homo sapiens
[15] = molecular target: T8, E3 ubiquitin-protein ligase XIAP (Homo sapiens, UniProt P98170); assay: small molecules displacing peptide from XIAP – biochemical, IAP family, fluorescence polarization (AID 1018); type: functional
[16] = molecular target: T8, E3 ubiquitin-protein ligase XIAP; assay: Counter Screen using XIAP-Bir3 for Chemical Antagonists of Bir1/2 domains of IAP-family anti-apoptotic proteins. [Related pubchem assays (depositor defined):AID1018, AID1449, AID1514, AID1638, AID1749, AID1750, AID488957, AID488963]
Genome polyprotein = Genome polyprotein (dengue virus type 2, UniProt P29990); assay: flavivirus cap methylation enzyme inhibition – biochemical, confirmation dose response, primary screen (AID 588689); type: functional
[17] = molecular target: Voltage-dependent T-type calcium channel subunit alpha-1H (Homo sapiens, UniProt O95180); type: functional;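 note: channel activity triggered by adding a high calcium stimulation buffer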
[18] = viability of HCT116 lacking mutant beta-catenin – cell-based, human colon tumor, dose response (AID 1045); type: functional;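 note: HCT116 colon tumor cells with beta catenin knocked out; cells exposed to compound for 60 hours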
[19] = viability of PTEN-deleted HCT116 cells – cell-based, HCT116 PTEN knockout, dose response (AID 1047); type: functional;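 note: HCT116 colon tumor cells with PTEN knocked out; cells exposed to compound for 60 hours before readout; potency for loss of cell viability measured by luminescence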

T8 sequence (P98170 whole entry): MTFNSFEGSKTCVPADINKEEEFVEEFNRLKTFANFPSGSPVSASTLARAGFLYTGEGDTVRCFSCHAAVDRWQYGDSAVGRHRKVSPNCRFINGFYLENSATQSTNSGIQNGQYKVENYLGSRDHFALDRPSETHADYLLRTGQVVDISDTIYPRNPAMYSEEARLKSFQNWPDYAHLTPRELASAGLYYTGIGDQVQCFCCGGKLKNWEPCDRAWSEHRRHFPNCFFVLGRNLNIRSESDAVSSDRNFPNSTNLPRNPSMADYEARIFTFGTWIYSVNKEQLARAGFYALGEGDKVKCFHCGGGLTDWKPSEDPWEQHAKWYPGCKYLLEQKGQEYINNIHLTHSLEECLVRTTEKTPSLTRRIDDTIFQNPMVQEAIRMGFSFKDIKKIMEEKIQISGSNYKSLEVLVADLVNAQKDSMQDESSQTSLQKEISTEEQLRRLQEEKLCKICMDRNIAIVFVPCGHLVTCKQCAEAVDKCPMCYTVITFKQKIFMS
Sequence of Induced myeloid leukemia cell differentiation protein Mcl-1 (Q07820 whole entry): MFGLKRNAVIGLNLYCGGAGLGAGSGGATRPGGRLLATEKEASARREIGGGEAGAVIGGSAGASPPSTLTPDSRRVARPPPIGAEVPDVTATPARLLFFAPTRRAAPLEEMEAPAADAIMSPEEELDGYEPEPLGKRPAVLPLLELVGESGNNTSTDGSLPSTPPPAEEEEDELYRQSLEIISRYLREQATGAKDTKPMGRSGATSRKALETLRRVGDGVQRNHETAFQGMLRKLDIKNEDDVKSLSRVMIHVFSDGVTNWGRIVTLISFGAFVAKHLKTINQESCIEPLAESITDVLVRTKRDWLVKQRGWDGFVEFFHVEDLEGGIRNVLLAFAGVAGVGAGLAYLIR
Sequence of Genome polyprotein (P29990 2492-3391 limits assumed): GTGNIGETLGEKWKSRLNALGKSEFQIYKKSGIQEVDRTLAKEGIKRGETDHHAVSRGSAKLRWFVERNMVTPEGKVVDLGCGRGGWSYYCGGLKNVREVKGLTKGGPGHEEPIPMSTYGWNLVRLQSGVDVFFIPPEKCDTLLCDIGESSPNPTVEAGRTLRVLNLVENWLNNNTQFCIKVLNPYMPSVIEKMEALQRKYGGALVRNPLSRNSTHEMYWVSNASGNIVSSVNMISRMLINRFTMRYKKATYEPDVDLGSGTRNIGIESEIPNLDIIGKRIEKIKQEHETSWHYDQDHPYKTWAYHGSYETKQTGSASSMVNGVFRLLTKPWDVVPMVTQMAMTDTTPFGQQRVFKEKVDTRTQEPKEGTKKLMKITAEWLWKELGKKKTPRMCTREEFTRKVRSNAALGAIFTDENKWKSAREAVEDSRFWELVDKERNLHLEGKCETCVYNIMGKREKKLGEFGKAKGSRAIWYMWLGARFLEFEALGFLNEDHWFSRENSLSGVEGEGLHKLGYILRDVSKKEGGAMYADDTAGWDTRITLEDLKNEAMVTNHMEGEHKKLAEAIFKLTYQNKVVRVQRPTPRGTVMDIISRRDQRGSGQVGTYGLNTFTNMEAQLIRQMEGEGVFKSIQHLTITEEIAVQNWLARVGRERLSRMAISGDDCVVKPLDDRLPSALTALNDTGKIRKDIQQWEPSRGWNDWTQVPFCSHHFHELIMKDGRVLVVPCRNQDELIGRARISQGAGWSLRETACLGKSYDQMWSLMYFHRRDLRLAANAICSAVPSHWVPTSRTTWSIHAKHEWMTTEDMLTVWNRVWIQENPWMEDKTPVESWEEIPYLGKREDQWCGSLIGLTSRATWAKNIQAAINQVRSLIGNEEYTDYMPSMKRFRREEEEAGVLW
Sequence of Voltage-dependent T-type calcium channel subunit alpha-1H (O95180 whole entry): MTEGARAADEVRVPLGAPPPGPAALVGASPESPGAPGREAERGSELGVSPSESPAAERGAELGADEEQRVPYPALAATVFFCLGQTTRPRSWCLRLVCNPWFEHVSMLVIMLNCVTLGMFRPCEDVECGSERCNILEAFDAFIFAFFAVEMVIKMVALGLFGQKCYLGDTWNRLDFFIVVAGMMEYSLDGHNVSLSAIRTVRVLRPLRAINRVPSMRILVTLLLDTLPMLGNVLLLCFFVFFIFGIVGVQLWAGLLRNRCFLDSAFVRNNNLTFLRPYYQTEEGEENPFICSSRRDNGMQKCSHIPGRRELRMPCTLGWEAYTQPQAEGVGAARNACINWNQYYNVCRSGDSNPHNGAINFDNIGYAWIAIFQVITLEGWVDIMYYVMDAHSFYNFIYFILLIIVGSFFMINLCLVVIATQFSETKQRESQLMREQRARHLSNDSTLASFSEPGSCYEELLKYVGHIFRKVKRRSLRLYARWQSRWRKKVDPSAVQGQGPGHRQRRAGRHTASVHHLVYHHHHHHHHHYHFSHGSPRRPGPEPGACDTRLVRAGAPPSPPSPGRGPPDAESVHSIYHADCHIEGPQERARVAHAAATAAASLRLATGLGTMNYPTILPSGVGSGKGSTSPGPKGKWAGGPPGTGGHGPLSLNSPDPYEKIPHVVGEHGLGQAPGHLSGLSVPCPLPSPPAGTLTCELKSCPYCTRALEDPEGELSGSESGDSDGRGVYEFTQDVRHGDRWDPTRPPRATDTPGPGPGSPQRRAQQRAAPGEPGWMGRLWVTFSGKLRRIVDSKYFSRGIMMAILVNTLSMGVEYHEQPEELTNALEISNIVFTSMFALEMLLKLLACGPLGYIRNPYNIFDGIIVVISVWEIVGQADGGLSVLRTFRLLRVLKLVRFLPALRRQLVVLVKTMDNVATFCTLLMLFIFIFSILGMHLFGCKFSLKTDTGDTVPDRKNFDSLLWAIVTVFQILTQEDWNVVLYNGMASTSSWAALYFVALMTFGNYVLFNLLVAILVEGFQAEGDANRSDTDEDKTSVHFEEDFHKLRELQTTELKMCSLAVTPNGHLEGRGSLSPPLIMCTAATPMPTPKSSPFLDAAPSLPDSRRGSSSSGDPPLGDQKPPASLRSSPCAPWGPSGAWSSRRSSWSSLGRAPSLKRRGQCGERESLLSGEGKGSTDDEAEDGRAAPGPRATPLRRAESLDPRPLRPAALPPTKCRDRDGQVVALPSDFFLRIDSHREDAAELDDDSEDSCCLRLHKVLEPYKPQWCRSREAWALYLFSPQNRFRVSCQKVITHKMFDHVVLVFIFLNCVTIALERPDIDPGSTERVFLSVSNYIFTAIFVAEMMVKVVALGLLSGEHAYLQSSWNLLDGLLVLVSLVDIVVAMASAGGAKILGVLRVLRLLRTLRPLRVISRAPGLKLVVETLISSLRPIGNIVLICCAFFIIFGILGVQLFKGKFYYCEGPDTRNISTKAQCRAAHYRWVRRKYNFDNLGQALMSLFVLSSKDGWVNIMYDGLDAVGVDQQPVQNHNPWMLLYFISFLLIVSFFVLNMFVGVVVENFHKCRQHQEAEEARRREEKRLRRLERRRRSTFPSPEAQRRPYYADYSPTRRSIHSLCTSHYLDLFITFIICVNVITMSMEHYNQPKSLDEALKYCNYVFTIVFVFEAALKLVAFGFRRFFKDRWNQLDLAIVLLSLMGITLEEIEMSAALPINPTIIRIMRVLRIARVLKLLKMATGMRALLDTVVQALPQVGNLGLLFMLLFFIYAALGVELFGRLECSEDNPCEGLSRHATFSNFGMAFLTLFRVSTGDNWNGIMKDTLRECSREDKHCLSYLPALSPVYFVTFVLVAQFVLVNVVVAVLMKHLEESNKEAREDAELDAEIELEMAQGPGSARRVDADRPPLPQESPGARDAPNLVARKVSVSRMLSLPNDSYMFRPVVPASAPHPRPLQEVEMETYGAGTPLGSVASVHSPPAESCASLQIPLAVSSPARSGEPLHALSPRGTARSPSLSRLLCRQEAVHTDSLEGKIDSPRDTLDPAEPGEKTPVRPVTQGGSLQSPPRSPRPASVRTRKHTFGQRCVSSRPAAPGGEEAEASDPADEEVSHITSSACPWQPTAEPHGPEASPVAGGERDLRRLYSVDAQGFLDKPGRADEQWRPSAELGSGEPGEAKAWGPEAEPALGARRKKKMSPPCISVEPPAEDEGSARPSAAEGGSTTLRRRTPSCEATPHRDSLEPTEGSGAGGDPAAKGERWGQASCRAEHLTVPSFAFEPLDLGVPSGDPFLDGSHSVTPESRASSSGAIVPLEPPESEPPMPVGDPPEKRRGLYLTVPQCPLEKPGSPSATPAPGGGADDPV
Sequence of Melanocortin receptor 4 (P32245 whole entry): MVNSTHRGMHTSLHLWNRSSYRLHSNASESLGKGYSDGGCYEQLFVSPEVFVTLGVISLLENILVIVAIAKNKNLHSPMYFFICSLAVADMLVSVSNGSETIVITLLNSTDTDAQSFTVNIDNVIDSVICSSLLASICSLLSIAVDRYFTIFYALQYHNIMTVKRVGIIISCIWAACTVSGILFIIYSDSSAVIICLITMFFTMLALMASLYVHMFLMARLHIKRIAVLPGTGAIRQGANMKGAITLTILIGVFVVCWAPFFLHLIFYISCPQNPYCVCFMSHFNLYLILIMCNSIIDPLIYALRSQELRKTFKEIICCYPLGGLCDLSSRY

c1ccc(-c2ncc3c(ccc4ccccc43)n2)cc1
EC50 [1]: > 67.6 µM (inactive)
IC50 [2]: > 67.6 µM (inactive)

CCN(Cc1ccccc1)Cc1nnnn1Cc1ccccc1
CC50 [3]: > 40 µM (active)

CC(C)(C)OC(=O)N1CCC(NC(=O)c2[nH]cnc2C(=O)Nc2ccccc2)CC1
CC50 [4]: > 40 µM (active)

CCCCCCOc1ccc(/C(C)=N/NC2=NCCN2)cc1
IC50 [5]: > 20 µM (inactive)
AC50 [6]: 16.3 µM (active)
AC50 [7]: 22.2 µM (active)
AC50 [8]: 23 µM (active)
AC50 [9]: 3.05 µM (active)
AC50 [10]: 16 µM (active)
EC50 (Melanocortin receptor 4): > 89.1 µM (inactive)

COc1ccc(-c2csc(NC(C)c3nc4cc(Cl)c(Cl)cc4n3CCCO)n2)cc1 (stereo not given)
CC50 [4]: 15.4 µM (active)

COc1cc(/C=C2/C(=O)N(c3ccc([N+](=O)[O-])cc3)N=C2N2CCOCC2)ccc1O
IC50 [11]: > 128 µM (inactive)
EC50 (Protein RecA): 6.68 µM (active)
AC50 [12]: 19.7 µM (active)

Cc1c(C(=O)N/N=C/c2ccc(-c3ccccc3[N+](=O)[O-])o2)sc(N)c1C#N
IC50 [13]: > 50 µM (not active)
IC50 [14]: 3.78 µM (active)

COc1ccc(-n2c(SCC(=O)Nc3cc(C)on3)nc3c(c2=O)SCC3)cc1
AC50 (HEK293): 98.6 µM (active)
IC50 [15]: > 100 µM (not active)
IC50 [16]: > 100 µM (inactive)

CC(=O)Nc1ccc(N2C(=O)CC(Sc3nc4ccccc4s3)C2=O)cc1 (stereo not given)
EC50 [1]: > 67.5 µM (inactive)
IC50 [2]: > 67.5 µM (inactive)

CCC1C/C(=C/c2ccco2)C(=O)/C(=C/c2ccco2)C1 (stereo not given)
CC50 [3]: > 40 µM (active)

CCN1C(=O)c2ccccc2[S+]([O-])c2ccc(C(=O)N3CCCCCC3)cc21 (stereo not given)
IC50 [15]: > 100 µM (not active)
IC50 [16]: > 100 µM (inactive)

O=C(NCc1cccs1)C1CC(c2ccccc2O)=NO1 (stereo not given)
IC50 [15]: > 100 µM (not active)
IC50 [16]: > 100 µM (inactive)

COc1ccccc1-c1ccc2c(c1)O[C@@H](CN(C)S(=O)(=O)c1ccc(F)cc1)[C@@H](C)CN([C@@H](C)CO)S2(=O)=O
AC50 [6]: 42.4 µM (active)

Oc1ccc2ccccc2c1/C=N\C12CN3CCN(CN(C3)C1)C2
IC50 [13]: 27.6 µM (active)
IC50 (Genome polyprotein): 53.9 µM (active)

Cc1ccc(OCC(O)Cn2c(=N)n(Cc3ccccc3)c3ccccc32)cc1 (stereo not given)
EC50 [17]: 4.11 µM (active)
AC50 [6]: 14.4 µM (active)
EC50 [18]: 4.31 µM (active)
AC50 [10]: 7.65 µM (active)
EC50 [19]: 4.53 µM (active)
